Experimental findings from patent US10590113B2, “6-hydroxy-4-oxo-1,4-dihydropyrimidine-5-carboxamides as APJ agonists” (priority 2016, dated 2020) are described below.

Molecules are shown by their SMILES.

The target of this test is T1, human APJ receptor (Homo sapiens, UniProt P35414).
T1 construct: expressed in transfected cells; host or cells: HEK293
T1 sequence (P35414 1-380): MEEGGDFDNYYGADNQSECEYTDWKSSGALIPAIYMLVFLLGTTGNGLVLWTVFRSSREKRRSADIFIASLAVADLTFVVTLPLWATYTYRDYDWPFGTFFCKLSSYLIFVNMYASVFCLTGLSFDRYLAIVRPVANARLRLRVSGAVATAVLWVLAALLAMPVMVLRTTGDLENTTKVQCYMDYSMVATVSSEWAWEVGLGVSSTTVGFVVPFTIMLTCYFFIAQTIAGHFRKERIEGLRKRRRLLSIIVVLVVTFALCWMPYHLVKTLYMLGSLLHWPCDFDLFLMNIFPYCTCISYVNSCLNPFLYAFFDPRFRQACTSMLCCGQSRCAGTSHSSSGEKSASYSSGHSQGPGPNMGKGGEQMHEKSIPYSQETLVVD
Briefly: Intracellular cAMP Accumulation Assay (APJ hcAMP, HTRF). Conditions: human APJ, cAMP accumulation; potency range class; read-out: hAPJ cAMP EC50 Potency range. It is filed as cell-based. In a few lines: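 Stably transfected HEK293 cells (5,000/well) incubated 30 min at room temperature with serially diluted compound, […] and 2 μM forskolin. cAMP measured by HTRF after 60 min with detection reagents, quantified against a cAMP standard curve; EC50 from variable-slope sigmoidal fit of inhibition of forskolin-stimulated cAMP.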
Background: Time-resolved FRET reads energy transfer from a long-lived donor to a nearby acceptor.

As for `COc1cccc(OC)c1-n1c(-c2cccc(C)c2)nc(=O)c(C(=O)N2CCC(c3ncc(Cl)cc3F)C2)c1O` (single isomer, unassigned) [Example 263, 5-[3-(5-chloro-3-fluoropyridin-2-yl)pyrrolidine-1-carbonyl]-1-(2,6-dimethoxyphenyl)-6-hydroxy-2-(3-methylphenyl)-1,4-dihydropyrimidin-4-one], the EC50 lay in the range of 0.01 to 10 nM.

As to `COc1cccc(OC)c1-n1c(-c2cccc(Cl)c2)nc(=O)c(C(=O)N2CCC(c3ncc(Cl)cc3F)C2)c1O` (single isomer, unassigned) [Example 264, 5-[3-(5-chloro-3-fluoropyridin-2-yl)pyrrolidine-1-carbonyl]-2-(3-chlorophenyl)-1-(2,6-dimethoxyphenyl)-6-hydroxy-1,4-dihydropyrimidin-4-one], the EC50 fell in the range of 0.01 to 10 nM.

With `COc1cccc(OC)c1-n1c(-c2ccc(F)cc2)nc(=O)c(C(=O)N2CCC(c3ncc(Cl)cc3F)C2)c1O` (single isomer, unassigned) [Example 265, 5-[3-(5-chloro-3-fluoropyridin-2-yl)pyrrolidine-1-carbonyl]-1-(2,6-dimethoxyphenyl)-2-(4-fluorophenyl)-6-hydroxy-1,4-dihydropyrimidin-4-one], the EC50 was in the range of 0.01 to 10 nM.

For the molecule `CCn1ccc(-c2nc(=O)c(C(=O)N3CCC(c4ccc(F)cc4F)C3)c(O)n2-c2c(OC)cccc2OC)n1` (single isomer, unassigned) [Example 269, 5-[3-(2,4-difluorophenyl)pyrrolidine-1-carbonyl]-1-(2,6-dimethoxyphenyl)-2-(1-ethyl-1H-pyrazol-3-yl)-6-hydroxy-1,4-dihydropyrimidin-4-one], the EC50 lay in the range of 0.01 to 10 nM.

As to `COc1cccc(OC)c1-n1c(-c2csc(C)n2)nc(=O)c(C(=O)N2CCC(c3c(F)cccc3F)C2)c1O` (single isomer, unassigned) [Example 270, 5-[3-(2,6-difluorophenyl)pyrrolidine-1-carbonyl]-1-(2,6-dimethoxyphenyl)-6-hydroxy-2-(2-methyl-1,3-thiazol-4-yl)-1,4-dihydropyrimidin-4-one], the EC50 lay within 0.01 to 10 nM.

Turning to `COc1cccc(OC)c1-n1c(-c2nc(C)cs2)nc(=O)c(C(=O)N2CCC(c3c(F)cccc3F)C2)c1O` (single isomer, unassigned) [Example 271, 5-[3-(2,6-difluorophenyl)pyrrolidine-1-carbonyl]-1-(2,6-dimethoxyphenyl)-6-hydroxy-2-(4-methyl-1,3-thiazol-2-yl)-1,4-dihydropyrimidin-4-one], the EC50 lay within 0.01 to 10 nM.

Consider `CCc1cccc(CC)c1-n1c(-c2ccn(C)n2)nc(=O)c(C(=O)N2CCC(c3ccc(F)cc3)C2)c1O` (single isomer, unassigned) [Example 272, 1-(2,6-diethylphenyl)-5-[3-(4-fluorophenyl)pyrrolidine-1-carbonyl]-6-hydroxy-2-(1-methyl-1H-pyrazol-3-yl)-1,4-dihydropyrimidin-4-one], for which the EC50 was in the range of 0.01 to 10 nM.

Consider `COc1ccnc(-c2nc(=O)c(C(=O)N3CCC(c4c(F)cccc4F)C3)c(O)n2-c2c(OC)cccc2OC)c1` (single isomer, unassigned) [Example 273, 5-[3-(2,6-difluorophenyl)pyrrolidine-1-carbonyl]-1-(2,6-dimethoxyphenyl)-6-hydroxy-2-(4-methoxypyridin-2-yl)-1,4-dihydropyrimidin-4-one], for which the EC50 was 0.01 to 10 nM.

`COc1cccc(OC)c1-n1c(-c2ccc(C)cn2)nc(=O)c(C(=O)N2CCC(c3c(F)cccc3F)C2)c1O` (single isomer, unassigned) [Example 274, 5-[3-(2,6-difluorophenyl)pyrrolidine-1-carbonyl]-1-(2,6-dimethoxyphenyl)-6-hydroxy-2-(5-methylpyridin-2-yl)-1,4-dihydropyrimidin-4-one]: the EC50 was 0.01 to 10 nM.

As for `CCn1ccc(-c2nc(=O)c(C(=O)N3CCC(c4c(F)cccc4F)C3)c(O)n2-c2c(OC)cccc2OC)n1` (single isomer, unassigned) [Example 276, 5-[3-(2,6-difluorophenyl)pyrrolidine-1-carbonyl]-1-(2,6-dimethoxyphenyl)-2-(1-ethyl-1H-pyrazol-3-yl)-6-hydroxy-1,4-dihydropyrimidin-4-one], the EC50 lay within 0.01 to 10 nM.

For `COc1ccnc(-c2nc(=O)c(C(=O)N3CCC(c4ccc(F)cc4F)C3)c(O)n2-c2c(OC)cccc2OC)c1` (single isomer, unassigned) [Example 278, 5-[3-(2,4-difluorophenyl)pyrrolidine-1-carbonyl]-1-(2,6-dimethoxyphenyl)-6-hydroxy-2-(4-methoxypyridin-2-yl)-1,4-dihydropyrimidin-4-one], the EC50 was in the range of 0.01 to 10 nM.

Turning to `COc1cccc(OC)c1-n1c(-c2ccc(Cl)nc2)nc(=O)c(C(=O)N2CCC(c3ccc(F)cc3F)C2)c1O` (single isomer, unassigned) [Example 279, 2-(6-chloropyridin-3-yl)-5-[3-(2,4-difluorophenyl)pyrrolidine-1-carbonyl]-1-(2,6-dimethoxyphenyl)-6-hydroxy-1,4-hydropyrimidin-4-one], the EC50 lay within 0.01 to 10 nM.

Regarding `COc1cccc(OC)c1-n1c(-c2ccc(Cl)cn2)nc(=O)c(C(=O)N2CCC(c3c(F)cccc3F)C2)c1O` (single isomer, unassigned) [Example 280, 2-(5-chloropyridin-2-yl)-5-[3-(2,6-difluorophenyl)pyrrolidine-1-carbonyl]-1-(2,6-dimethoxyphenyl)-6-hydroxy-1,4-dihydropyrimidin-4-one], the EC50 was 0.01 to 10 nM.

For `COc1cccc(OC)c1-n1c(-c2ccc(Cl)nc2)nc(=O)c(C(=O)N2CCC(c3c(F)cccc3F)C2)c1O` (single isomer, unassigned) [Example 281, 2-(6-chloropyridin-3-yl)-5-[3-(2,6-difluorophenyl)pyrrolidine-1-carbonyl]-1-(2,6-dimethoxyphenyl)-6-hydroxy-1,4-dihydropyrimidin-4-one], the EC50 fell in the range of 0.01 to 10 nM.

As for `COc1cccc(OC)c1-n1c(-c2ccc(Cl)cn2)nc(=O)c(C(=O)N2CCC(c3ccc(F)cc3F)C2)c1O` (single isomer, unassigned) [Example 287, 2-(5-chloropyridin-2-yl)-5-[3-(2,4-difluorophenyl)pyrrolidine-1-carbonyl]-1-(2,6-dimethoxyphenyl)-6-hydroxy-1,4-dihydropyrimidin-4-one], the EC50 fell in the range of 0.01 to 10 nM.

`CCc1cccc(CC)c1-n1c(-c2ccn(C(C)C)n2)nc(=O)c(C(=O)N2CCC(c3ncc(Cl)cc3F)C2)c1O` (single isomer, unassigned) [Example 290, 5-[3-(5-chloro-3-fluoropyridin-2-yl)pyrrolidine-1-carbonyl]-1-(2,6-diethylphenyl)-6-hydroxy-2-[1-(propan-2-yl)-1H-pyrazol-3-yl]-1,4-dihydropyrimidin-4-one]: the EC50 was in the range of 0.01 to 10 nM.

Consider `CCc1cccc(CC)c1-n1c(-c2ccn(C(C)C)n2)nc(=O)c(C(=O)N2CCC(c3ncccc3F)C2)c1O` (single isomer, unassigned) [Example 292, 1-(2,6-diethylphenyl)-5-[3-(3-fluoropyridin-2-yl)pyrrolidine-1-carbonyl]-6-hydroxy-2-[1-(propan-2-yl)-1H-pyrazol-3-yl]-1,4-dihydropyrimidin-4-one], for which the EC50 was 0.01 to 10 nM.

For the molecule `CCn1ccc(-c2nc(=O)c(C(=O)N3CCC(c4ncc(F)cc4F)C3)c(O)n2-c2cccc(C(C)C)c2)n1` (single isomer, unassigned) [Example 293, 5-[3-(3,5-difluoropyridin-2-yl)pyrrolidine-1-carbonyl]-2-(1-ethyl-1H-pyrazol-3-yl)-6-hydroxy-1-[3-(propan-2-yl)phenyl]-1,4-dihydropyrimidin-4-one], the EC50 lay in the range of 0.01 to 10 nM.

`CCn1ccc(-c2nc(=O)c(C(=O)N3CCC(c4ccccc4F)C3)c(O)n2-c2cccc(C(C)C)c2)n1` (single isomer, unassigned) [Example 294, 2-(1-ethyl-1H-pyrazol-3-yl)-5-[3-(2-fluorophenyl)pyrrolidine-1-carbonyl]-6-hydroxy-1-[3-(propan-2-yl)phenyl]-1,4-dihydropyrimidin-4-one]: the EC50 lay within 0.01 to 10 nM.

`CCc1cccc(CC)c1-n1c(-c2ccn(C(C)C)n2)nc(=O)c(C(=O)N2CCC(c3ccccc3F)C2)c1O` (single isomer, unassigned) [Example 295, 1-(2,6-diethylphenyl)-5-[3-(2-fluorophenyl)pyrrolidine-1-carbonyl]-6-hydroxy-2-[1-(propan-2-yl)-1H-pyrazol-3-yl]-1,4-dihydropyrimidin-4-one]: the EC50 is 0.01 to 10 nM.

Take `CCc1cccc(CC)c1-n1c(-c2csc(C)n2)nc(=O)c(C(=O)N2CCC(c3ncc(Cl)cc3F)C2)c1O` (single isomer, unassigned) [Example 296, 5-[3-(5-chloro-3-fluoropyridin-2-yl)pyrrolidine-1-carbonyl]-1-(2,6-diethylphenyl)-6-hydroxy-2-(2-methyl-1,3-thiazol-4-yl)-1,4-dihydropyrimidin-4-one]: the EC50 lay within 0.01 to 10 nM.

As for `CCc1cccc(CC)c1-n1c(-c2csc(C(C)C)n2)nc(=O)c(C(=O)N2CCC(c3ncc(F)cc3F)C2)c1O` (single isomer, unassigned) [Example 297, 1-(2,6-diethylphenyl)-5-[3-(3,5-difluoropyridin-2-yl)pyrrolidine-1-carbonyl]-6-hydroxy-2-[2-(propan-2-yl)-1,3-thiazol-4-yl]-1,4-dihydropyrimidin-4-one], the EC50 is 0.01 to 10 nM.

One may read the EC50 as the concentration needed to bring the measured effect to its halfway point.
